The conditions of data set [1]: cited from earlier work.
In data set [2] the test system is Male Sprague Dawley rats. The experiment in a line: Effect of amphetamine on locomotor activity of rats receiving NAC in drinking water. In kind it is in vivo. On the procedure:
(§1) Male Sprague Dawley rats (380-430 g) were obtained from Department of Pathology, University of Melbourne. On arrival rats were housed in pairs in a temperature-controlled (20-24° C.) colony room maintained on a 12 hr light-dark cycle (6 am-6 pm). Rats had continuous access to food and water (plain or treated) and were weighed on arrival and then daily from onset of experiment. Rats were allowed to adjust to the new environment for 3 days before starting the experiment.
(§2) This experiment consisted of 24 rats in total. Eight rats received plain drinking water (controls), 8 rats received 0.5% NAC (Sigma) in their drinking water (low dose) and 8 rats received 2% NAC in their drinking water (high dose). Drug treatment was administered for 14 consecutive days. Bottles were cleaned and fresh drug solution was made up on days 4, 8 and 11. Body weights and amount of drinking water consumed per box were measured on a daily basis. After 7 days of drug treatment, behavioural testing began and continued until day 14 of treatment.
Locomotor activity was assessed in 8 automated photo cell cages, data being collected in 5-min intervals. Animals were placed individually in cages and baseline activity was measured during the first 30 minutes. After 30 minutes rats received a subcutaneous injection of either saline (vehicle), 0.5 mg/kg or 5 mg/kg amphetamine and locomotor activity was measured for a further 90 minutes. Drug treatment and time of day of the experiment were both randomised (see table 1). Each rat received 3 locomotor sessions in total. A period of 3 days was allowed between locomotor experiments to ensure complete elimination of amphetamine.
Locomotor hyperactivity was obtained as total distance moved per 30 min, i.e. before injection and 0-30 min, 30-60 min and 60-90 min after injection. In order to account for slight variations in baseline activity, post-injection behaviour was expressed a change of baseline activity. Average data for rats receiving water, 0.5% NAC, or 2% NAC was compared using analysis of variance for repeated measures (ANOVA) using the Systat 9.0 software package.

Data set [3] can be described thus: Body weights and daily water consumption of rats receiving NAC in drinking water for 14 days. The format is in vivo. On the procedure: as §1, §2
For data set [4], the system named is humans. The conditions noted are these: cited from earlier work.
Setting [5] is: 600-1200 mg/day for three weeks, Ziegler and Gries, 1997.

“Also recorded” adds a separate entry of the source.

Turning to `O=C(O)CCCCC1CCSS1` (stereo not drawn) [Alpha-lipoic Acid], in data set [1] (setting [5]), the “Symptoms of diabetic neuropathy” value was “reproducibly demonstrated benefit” and the Tolerability result was “tolerated with no adverse effects”.
On to `CC(N)Cc1ccccc1` (stereo not drawn) [amphetamine], for which the “Locomotor activity after subcutaneous injection of amphetamine” value is “induced a behavioural hyperactivity” in data set [2] (0.5 mg/kg of amphetamine, 90 min after injection) and “initially induced marked behavioural hyperactivity” in data set [2] (5 mg/kg of amphetamine, activity fell to low levels later in the 90 min observation period).
Take `O=C1O[C@H]([C@@H](O)CO)C(O)=C1O` [Vitamin C]: the “Elevation of plasma levels” value in data set [1] (500 mg daily) is on record as 60%.
As for `Cc1c(C)c2c(c(C)c1O)CC[C@@](C)(CCC[C@H](C)CCC[C@H](C)CCCC(C)C)O2` [alpha-tocopherol], in data set [1] (400 IU), the Adverse effects result was “without causing adverse effects” and the CSF levels entry is listed as “sufficient to increase CSF levels”. Further, in data set [1] (Bowry et al., 1995), the “Doses that may cause coagulopathies and can be a source of radicals” value is “higher than 2000 IU/day”.
In the case of `CC(=O)N[C@@H](CS)C(=O)O` [NAC, N-acetyl cysteine], the “Average daily water consumption per box” value in data set [3] (0.5% NAC in drinking water (low dose), 14 days of treatment, control rats 77-90 ml) fell in the range of 60 to 72 mL. Moreover, in data set [3] (2% NAC in drinking water (high dose), 14 days), the “Body weight over the treatment period compared with controls” value was “marked decrease in body weight”. Further, the “Interaction of treatment x time, 5 mg/kg of amphetamine, vs controls (significant or not)” value in data set [2] (0.5% NAC) was “not”. In addition, the “Overall effect of 0.5 mg/kg of amphetamine on locomotor activity vs water controls” value in data set [2] (0.5% NAC in drinking water, F(1,14)=5.11, P=0.04) is reported as “tended to be greater”; in data set [2] (2% NAC in drinking water, F(1,13)=4.3, P=0.06), “tended to be greater”. For the same compound, the “Baseline locomotor activity before injection, averaged over three sessions, vs water controls” value in data set [2] (0.5% or 2% NAC in drinking water, difference did not reach statistical significance) is listed as “tended to be lower”. Also, the “Duration of locomotor hyperactivity after 5 mg/kg of amphetamine” value in data set [2] (2% NAC) is “maintained longer than in controls; also recorded: prolonged effect”. Moreover, in data set [2] (2% NAC to drink, failed to reach overall statistical significance), the “Overall effect of 5 mg/kg of amphetamine on locomotor activity vs controls” value is “tended to be greater”. The “Interaction of treatment x time, 5 mg/kg of amphetamine, vs controls” value in data set [2] (2% NAC, F(2,28)=4.9, P=0.024) is “significant”. Besides, the “Maximal effect of 0.5 mg/kg of amphetamine on locomotor activity vs water controls” value in data set [2] (30-60 min after injection, either NAC dose (0.5% or 2%), 0.5 mg/kg) was “significantly greater; also recorded: greater maximal effect”. For the same compound, the Plasma cystine levels entry in data set [4] (dose of 3 g/day (4 capsules, 2 bid)) is reported as “sustains elevated plasma cystine levels”. In addition, the “Human dosing without adverse effects” value in data set [4] (human, Louwerse et al., 1995) is reported as “up to 5 g/day”.
Turning to `C[Se]CC[C@H](N)C(=O)O` [Selenomethionione], the “Adverse effects of long-term dose” value in data set [1] (200 ug, one per day) is recorded as “no known adverse effects”.

The values are drawn from patent US20050032708A1, “Modulation of physiological processes and agents useful for same” (priority 2001, published 2005).
